Measurements: patent US9902761B2, “Polypeptides, nucleic acids and uses thereof” (AGENCY FOR SCIENCE, TECHNOLOGY AND RESEARCH, priority 2013, dated 2018)

What was measured:
hESCs [1] = test: uptake of FITC-labeled recombinant peptide by hESCs (immunofluorescence); type: cell-based, human
hECs = test: growth and survival effect of recombinant ELA on hECs; type: cell-based, human
Method: (§1) Primary human fibroblasts, SW1353 chondrosarcoma (ATCC) and NTERA2 hECs (a gift from Barbara Knowles and Davor Solter) were grown in Dulbecco's modified Eagle's medium (DMEM) with 10% FBS (Hyclone), 2 mM GlutaMAX™ (Invitrogen) and 1 mM sodium pyruvate. For xCELLigence real time growth assays, 4000 cells were plated per well of an E-plate (ACEA Biosciences) with media changes every 48 hours. […] Cell cycle studies were performed with Click-iT EDU staining kit (Invitrogen) and by performing a double thymidine block (2.5 mM thymidine; 16 hour block, 8 hour release, 16 hour block) followed by DAPI staining for DNA content at the indicated times following release.

[2] = test system: primary human fibroblasts; test: growth and survival effect of recombinant ELA on primary fibroblasts; type: cell-based
Method: as §1

hESCs [3] = test: embryoid body differentiation of ELA-treated hESCs (qPCR); type: cell-based, human
Method: Embryoid body differentiation was performed by plating 1 million cells per well of an Aggrewell 400 plate in Aggrewell Medium (Stem Cell Technologies) followed by harvesting and replating into low-adhesion plates (Corning).
After the indicated time periods, embryoid bodies were harvested and RNA extracted using RNeasy kit ([…]). qPCR reactions were carried out using either Universal FastSlart SYBR Green Mastermix (Roche) or using the Universal Probe Library system (Roche) in tandem with Taqman Fast Mastermix (Invitrogen). Primer sequences can be found in Table E1.

hESCs [4] = test: directed endoderm differentiation of hESCs, SOX17+ cell count; type: cell-based, human; details: 2.5 uM ELA peptide up to day 3, count on day 5
Method: Shef4TetR5-shELA and Shef4TetR5-shβ2M cells were cultured in the presence (shELA and shβ2M respectively) or absence (Control) of 20 ng/ml doxycycline for 1 passage (4 days) and dissociated with Accutase. […] 24 hours later, the media was changed to Endo differentiation media 1 [RPMI 1640 (Gibco), 1× B-27 supplement (Invitrogen), 50 ng/ml of Activin A (R&D Systems), 25 ng/ml BMP4 (R&D Systems) and 50 ng/ml bFGF (Invitrogen)] for 3 days. On day 3, the media was changed to Endo differentiation media 2 (RPMI 1640, B27, 50 ng/ml Activin) for 2 more days of culture. Rescue experiments were performed by adding 2.5 uM of ELA peptide to Shef4TetR5-shELA concurrently with doxycycline up to day 3, when the ELA peptide is no longer necessary as judged by downregulation of endogenous ELA.
On day 5, cells were fixed with 4% paraformaldehyde and stained with α SOX17 (AF1924, R&D Systems) and DAPI. For each well, three different randomly selected fields were imaged and the number of nuclei staining positive of SOXI 7 and DAPI were counted using a custom macro in ImageJ. A minimum of two wells per condition was used for each experiment, and a minimum of two independent experiments were performed to generate the results.

CXCR4 [5] = molecular target: T1, CXCR4 (Homo sapiens, UniProt P61073); test: PathHunter β-Arrestin CXCR4 assay, antagonist mode with SDF-1; type: cell-based; details: SDF-1 at EC80 concentration
Method: To detect activation of CXCR4 by ELA or SDF-1, recombinant ELA or SDF-1 were added in increasing concentrations for 90-180 minutes to cells stably expressing CXCR4 coupled to a downstream reporter. β-Arrestin recruitment was measured using the PathHunter® β-Arrestin CXCR4 assay (DiscoveRx). Interaction of CXCR4 with Arrestin was detected by Enzyme Fragment Complementation (EFC) between two complementary domains of β-galactosidase (β-Gal), one fused to CXCR4 and the other fused to β-Arrestin. β-Arrestin recruitment to CXCR4 results in complementation of the two domains to generate β-Gal activity. % Ac ? vity=100%×(mean RLU of test sample−mean RLU of vehicle control)/(mean MAX control ligand−mean RLU of vehicle control). To detect antagonism of SDF-1 by ELA, the assay was run in antagonist mode by measuring the EC50 of ELA in the presence of SDF-1 at EC80 concentration. To detect synergism between ELA and SDF-1, the assay was run in positive allosteric mode by measuring the EC50 of ELA in the presence of SDF-1 at EC20 concentration.

PRAS40 = test: SILAC-based phosphoproteomic analysis of hESCs pulsed for 10 minutes; type: cell-based, human; details: 10 minute pulse, 5 uM
[6] = coronary artery disease / myocardial infarction, APELIN experiments repeated with ELABELA; type: in vivo
Text: Peptides 2013; 46:76-82. • Li L, Zeng H, Chen J X. Apelin-13 increases myocardial progenitor cells and improves repair postmyocardial infarction. Am J Physiol Heart Cire Physiol 2012; 303:H605-18. • Pisarenko O I, Serebryakova L I, Pelogeykina Y A, et al. In vivo reduction of reperfusion injury to the heart with apelin-12 peptide in rats. Bull Exp Biol Med 2011; 152:79-82.

[7] = artherosclerosis, APELIN experiments repeated with ELABELA; type: in vivo
Text: J Clin Invest 2008; 118:3343-54.
The experiments described in the above publication are repeated, with the replacement of APELIN with ELABELA.

[8] = hypertension, APELIN experiments repeated with ELABELA; details: in vivo
Text: Regulatory Peptides. 2001; 99(2-3):87-92. • Cheng X, Cheng X S, Pang C C. […] European Journal of Pharmacology. […] Journal of the American College of Cardiology. 2008; 52(11):908-913.

hESCs [9] = test: stress-induced apoptosis of hESCs by ActinomycinD; type: cell-based, human
CXCR4 [10] = molecular target: T1, CXCR4; test: ELA receptor binding assay (ELA-AP) on 293T cells transfected with receptor; parameters: 293T cells transfected with plasmids encoding full-length ORFs of putative receptors; expressed in transfected cells; host or cells: 293T; details: ELA-AP conditioned medium, 3 hours
Method: Secreted ELA-Alkaline Phosphatase (ELA-AP) was produced by transfecting a construct encoding ELA-AP into 293T cells, as described previously (Chng et al., 2013). Conditioned medium from ELA-AP expressing cells was then incubated for 3 hours with 293T cells transfected with plasmids encoding full-length ORFs of putative receptors. Unbound ELA-AP was washed away and cells were lysed with 1% Triton-X/PBS. Lysates were cleared and incubated with an AP substrate BCIP/NBT at 37° C. for 15 minutes. Optical density was read at 495 nm, and the intensity of blue coloration is directly proportional to the affinity of ELA-AP to the over-expressed receptor.

T1 sequence (P61073 whole entry, the tested form may be a part): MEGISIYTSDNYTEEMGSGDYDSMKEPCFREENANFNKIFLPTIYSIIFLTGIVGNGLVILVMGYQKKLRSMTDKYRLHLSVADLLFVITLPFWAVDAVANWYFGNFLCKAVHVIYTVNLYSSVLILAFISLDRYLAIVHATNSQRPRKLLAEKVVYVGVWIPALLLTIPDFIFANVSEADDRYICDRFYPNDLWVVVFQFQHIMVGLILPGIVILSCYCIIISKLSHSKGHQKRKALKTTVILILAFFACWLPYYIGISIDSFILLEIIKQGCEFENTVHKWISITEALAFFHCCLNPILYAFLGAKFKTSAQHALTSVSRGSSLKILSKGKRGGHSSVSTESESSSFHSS

In the case of QRPVNLTMRRKLRKHNCLQRRCMPLHSRVPFP [ELA], the “uptake by hESCs” value (hESCs [1]) is reported as “rapidly up-taken by hESCs”, the “activity of recombinant ELA on hECs” value (hECs) is reported as “exerted activity only on hESCs cultures and no other differentiated cell types” and the “activity of recombinant ELA on primary human fibroblasts” value [2] is reported as “exerted activity only on hESCs cultures and no other differentiated cell types”. For the same sequence, the “lineage bias during embryoid body differentiation” value (hESCs [3]) was “not biased towards mesoderm or endoderm lineages”, the “rescue of SOX17+ endoderm differentiation of shELA hESCs” value (hESCs [4]) was “entirely rescued” and the “antagonism of SDF1-mediated CXCR4 activation” value (CXCR4 [5]) was “preventing SDF1-mediated CXCR4 activation”. For the same sequence, the “phosphopeptide LNpTSDFQK derived from PRAS40” value (PRAS40) was “Among the top phosphopeptides activated by ELA”, the “angiogenesis and cardiac repair postmyocardial infarction” value ([6]; in vivo) was “promote angiogenesis and ameliorate cardiac repair postmyocardial infarction” and the “myocardial infarction size and damage to cardiomyocytes” value ([6]; injection) was “limit the myocardial infarction size and reduce damage to cardiomyocytes”. For the same sequence, the protection against artherosclerosis ([7]; Ang II) was “can protect against artherosclerosis”, the “abdominal aortic aneurysm formation and rupture” value ([7]; in vivo) was “inhibit abdominal aortic aneurysm formation and rupture” and the blood pressure [8] was “causes a reduction in blood pressure”. For the same sequence, the “levels of MCL-1” value (hESCs [9]) was “rescued with exogenous ELA”, the “levels of P53 protein following exposure to stress” value (hESCs [9]) was “no apparent effect” and the BAX localisation (hESCs [9]; mitochondria versus cytoplasm) was “remained primarily in the cytoplasm”. For the same sequence, the “cell surface binding to CXCR4” value (CXCR4 [10]) was “confers cell surface binding to ELA”.
